Assays:
[1] = target: T1, p300 (Homo sapiens, UniProt Q09472); test: P300 degradation, HiBit technology in A549 P300 HiBit cells (2 h); format: cell-based; conditions: 2 hrs post treatment; for Dmax: A549, A549 P300 HiBit cells; for DC50: A549 P300 HiBit cells
T1 construct: host or cells: A549 P300 HiBit cells
Procedure, shortened: (§1)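 Degradation potency and Dmax came from luminescence after 10 min room-temperature lysis with HiBit detection buffer. Beforehand, HiBit-tagged A549 lines received serial compound dilutions (10 mM DMSO stocks) at 37 °C, 5% CO2. CBP cells were read at 24 h, p300 cells at 2 h.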

[2] = target: T2, CBP (Homo sapiens, UniProt Q92793); test: CBP degradation, HiBit technology in A549 CBP HiBit cells (24 h); format: cell-based; conditions: 24 hrs post treatment
T2 construct: host or cells: A549 CBP HiBit cells
Procedure, shortened: as §1

T1 sequence (Q09472 whole entry): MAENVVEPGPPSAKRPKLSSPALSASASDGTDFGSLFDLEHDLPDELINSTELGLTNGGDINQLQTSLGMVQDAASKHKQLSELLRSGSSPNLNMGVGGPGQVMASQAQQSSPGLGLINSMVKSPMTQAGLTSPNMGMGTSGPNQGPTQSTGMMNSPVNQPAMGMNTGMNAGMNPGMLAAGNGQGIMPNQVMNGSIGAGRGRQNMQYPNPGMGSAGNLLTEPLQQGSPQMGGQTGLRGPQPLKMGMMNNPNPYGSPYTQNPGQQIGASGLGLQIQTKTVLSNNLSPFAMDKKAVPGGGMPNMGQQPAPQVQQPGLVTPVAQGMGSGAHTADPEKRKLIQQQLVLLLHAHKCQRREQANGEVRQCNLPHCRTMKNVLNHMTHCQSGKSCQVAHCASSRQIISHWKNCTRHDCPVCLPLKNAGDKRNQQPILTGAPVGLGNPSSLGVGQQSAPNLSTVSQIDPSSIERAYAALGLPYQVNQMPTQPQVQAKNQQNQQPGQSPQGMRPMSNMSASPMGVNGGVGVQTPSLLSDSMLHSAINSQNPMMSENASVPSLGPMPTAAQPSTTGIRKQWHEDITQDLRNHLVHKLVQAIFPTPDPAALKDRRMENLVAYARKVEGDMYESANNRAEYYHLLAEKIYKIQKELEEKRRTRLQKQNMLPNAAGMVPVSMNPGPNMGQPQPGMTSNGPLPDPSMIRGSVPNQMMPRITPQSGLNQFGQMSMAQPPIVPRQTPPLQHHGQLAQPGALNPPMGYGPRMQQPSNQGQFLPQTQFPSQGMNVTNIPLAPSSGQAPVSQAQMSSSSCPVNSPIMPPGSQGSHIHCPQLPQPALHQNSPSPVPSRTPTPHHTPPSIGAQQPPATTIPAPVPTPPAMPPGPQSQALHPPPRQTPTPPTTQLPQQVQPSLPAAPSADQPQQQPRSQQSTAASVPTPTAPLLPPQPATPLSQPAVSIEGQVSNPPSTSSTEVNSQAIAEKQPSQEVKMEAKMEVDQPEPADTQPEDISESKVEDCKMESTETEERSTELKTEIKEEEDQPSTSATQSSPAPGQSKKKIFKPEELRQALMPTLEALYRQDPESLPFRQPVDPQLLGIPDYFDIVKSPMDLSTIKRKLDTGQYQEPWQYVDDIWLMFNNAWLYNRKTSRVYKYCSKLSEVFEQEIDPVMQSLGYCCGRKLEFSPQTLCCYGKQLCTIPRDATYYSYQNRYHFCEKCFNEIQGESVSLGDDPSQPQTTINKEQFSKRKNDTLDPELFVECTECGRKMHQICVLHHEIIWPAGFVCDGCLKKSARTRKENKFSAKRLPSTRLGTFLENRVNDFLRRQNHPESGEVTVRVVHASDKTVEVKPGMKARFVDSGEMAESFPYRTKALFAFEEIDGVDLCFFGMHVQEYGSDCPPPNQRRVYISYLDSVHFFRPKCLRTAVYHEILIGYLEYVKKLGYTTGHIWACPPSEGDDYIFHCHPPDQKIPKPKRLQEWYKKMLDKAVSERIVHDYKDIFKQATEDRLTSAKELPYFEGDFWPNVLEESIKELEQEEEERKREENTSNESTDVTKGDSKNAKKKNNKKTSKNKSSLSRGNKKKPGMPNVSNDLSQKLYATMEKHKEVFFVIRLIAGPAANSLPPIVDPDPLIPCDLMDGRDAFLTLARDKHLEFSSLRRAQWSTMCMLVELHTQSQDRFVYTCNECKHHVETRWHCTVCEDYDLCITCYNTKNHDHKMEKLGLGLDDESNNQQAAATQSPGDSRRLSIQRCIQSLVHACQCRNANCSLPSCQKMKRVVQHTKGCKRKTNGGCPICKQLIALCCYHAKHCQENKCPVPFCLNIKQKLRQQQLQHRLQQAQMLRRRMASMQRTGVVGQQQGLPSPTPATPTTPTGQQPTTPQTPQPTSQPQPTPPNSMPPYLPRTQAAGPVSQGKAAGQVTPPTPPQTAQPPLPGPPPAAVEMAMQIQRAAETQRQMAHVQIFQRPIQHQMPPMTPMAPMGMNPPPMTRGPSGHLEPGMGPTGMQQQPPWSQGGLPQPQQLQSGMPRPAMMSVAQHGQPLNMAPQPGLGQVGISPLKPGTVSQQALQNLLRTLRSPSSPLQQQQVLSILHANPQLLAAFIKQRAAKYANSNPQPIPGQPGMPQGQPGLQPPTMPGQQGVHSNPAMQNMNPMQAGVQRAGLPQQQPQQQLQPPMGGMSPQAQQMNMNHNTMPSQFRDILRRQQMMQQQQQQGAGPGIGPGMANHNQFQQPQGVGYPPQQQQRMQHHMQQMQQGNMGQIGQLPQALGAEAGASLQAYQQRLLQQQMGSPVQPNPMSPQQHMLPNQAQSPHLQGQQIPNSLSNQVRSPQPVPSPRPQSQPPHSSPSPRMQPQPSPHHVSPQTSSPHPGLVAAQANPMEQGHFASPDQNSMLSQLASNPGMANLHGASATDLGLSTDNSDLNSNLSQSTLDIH
T2 sequence (Q92793 whole entry): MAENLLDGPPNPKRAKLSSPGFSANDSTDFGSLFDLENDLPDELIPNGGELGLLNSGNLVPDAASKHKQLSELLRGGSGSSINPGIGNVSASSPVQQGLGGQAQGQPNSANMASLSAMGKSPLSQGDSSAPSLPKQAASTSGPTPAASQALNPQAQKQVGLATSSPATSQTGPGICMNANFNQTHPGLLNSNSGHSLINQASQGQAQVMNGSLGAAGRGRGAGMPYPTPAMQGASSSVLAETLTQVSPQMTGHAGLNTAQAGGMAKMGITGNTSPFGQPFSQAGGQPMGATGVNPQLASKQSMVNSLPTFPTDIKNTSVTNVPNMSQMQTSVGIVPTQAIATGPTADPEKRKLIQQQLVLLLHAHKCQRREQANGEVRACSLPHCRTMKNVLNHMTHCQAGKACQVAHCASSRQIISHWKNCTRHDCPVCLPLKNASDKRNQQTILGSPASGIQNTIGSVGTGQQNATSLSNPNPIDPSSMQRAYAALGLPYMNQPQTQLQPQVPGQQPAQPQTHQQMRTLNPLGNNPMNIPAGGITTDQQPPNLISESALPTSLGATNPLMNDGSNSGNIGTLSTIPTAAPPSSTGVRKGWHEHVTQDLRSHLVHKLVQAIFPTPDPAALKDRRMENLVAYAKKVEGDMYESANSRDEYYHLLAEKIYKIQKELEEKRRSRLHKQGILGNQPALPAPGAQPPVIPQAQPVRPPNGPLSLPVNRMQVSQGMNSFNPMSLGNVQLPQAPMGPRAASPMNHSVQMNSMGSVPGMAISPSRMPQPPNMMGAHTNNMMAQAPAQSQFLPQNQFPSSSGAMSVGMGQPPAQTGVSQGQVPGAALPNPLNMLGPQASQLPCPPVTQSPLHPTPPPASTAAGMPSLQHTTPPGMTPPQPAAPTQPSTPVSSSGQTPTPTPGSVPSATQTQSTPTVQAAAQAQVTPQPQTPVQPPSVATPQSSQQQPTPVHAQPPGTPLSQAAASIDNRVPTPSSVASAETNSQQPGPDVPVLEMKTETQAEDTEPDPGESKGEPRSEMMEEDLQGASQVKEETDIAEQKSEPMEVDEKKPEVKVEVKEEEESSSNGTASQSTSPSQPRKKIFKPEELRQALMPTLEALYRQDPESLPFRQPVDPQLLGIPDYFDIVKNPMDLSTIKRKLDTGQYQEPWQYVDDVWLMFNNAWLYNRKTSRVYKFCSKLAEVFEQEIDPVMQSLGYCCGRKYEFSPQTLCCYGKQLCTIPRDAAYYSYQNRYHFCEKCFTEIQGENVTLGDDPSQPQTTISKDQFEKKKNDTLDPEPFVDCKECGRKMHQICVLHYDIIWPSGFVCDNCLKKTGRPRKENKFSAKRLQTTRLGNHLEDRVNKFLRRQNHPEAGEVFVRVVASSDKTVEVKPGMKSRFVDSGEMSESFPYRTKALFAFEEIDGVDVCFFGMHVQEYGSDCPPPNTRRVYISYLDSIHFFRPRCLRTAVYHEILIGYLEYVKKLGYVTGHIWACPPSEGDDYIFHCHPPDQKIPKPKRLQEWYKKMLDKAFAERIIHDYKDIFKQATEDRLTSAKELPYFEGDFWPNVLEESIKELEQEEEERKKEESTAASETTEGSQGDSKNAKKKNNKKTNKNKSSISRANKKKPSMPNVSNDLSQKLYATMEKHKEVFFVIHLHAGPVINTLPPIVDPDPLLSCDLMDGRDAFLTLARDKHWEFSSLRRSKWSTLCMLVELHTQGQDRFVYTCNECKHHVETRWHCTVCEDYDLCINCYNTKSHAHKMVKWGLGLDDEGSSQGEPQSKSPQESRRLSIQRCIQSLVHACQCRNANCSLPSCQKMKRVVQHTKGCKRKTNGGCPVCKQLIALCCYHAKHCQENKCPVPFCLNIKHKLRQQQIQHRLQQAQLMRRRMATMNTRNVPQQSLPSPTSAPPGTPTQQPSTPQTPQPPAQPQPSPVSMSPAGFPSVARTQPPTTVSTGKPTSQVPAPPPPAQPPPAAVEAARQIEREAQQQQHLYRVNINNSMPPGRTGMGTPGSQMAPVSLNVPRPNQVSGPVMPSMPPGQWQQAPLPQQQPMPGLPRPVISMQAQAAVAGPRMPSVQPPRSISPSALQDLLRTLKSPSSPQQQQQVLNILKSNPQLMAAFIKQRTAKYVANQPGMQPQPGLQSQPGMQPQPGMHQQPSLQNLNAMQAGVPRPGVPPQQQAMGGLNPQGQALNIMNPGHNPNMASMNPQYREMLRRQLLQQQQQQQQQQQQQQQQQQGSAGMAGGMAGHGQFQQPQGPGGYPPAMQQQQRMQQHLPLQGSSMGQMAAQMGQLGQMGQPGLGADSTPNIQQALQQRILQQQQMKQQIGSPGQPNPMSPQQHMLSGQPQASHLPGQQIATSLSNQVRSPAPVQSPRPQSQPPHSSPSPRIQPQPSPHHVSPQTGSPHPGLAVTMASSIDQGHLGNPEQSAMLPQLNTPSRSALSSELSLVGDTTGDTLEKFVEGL

Row | SMILES | Dmax [1] [%] | DC50 [1] [nM] | DC50 [2] [nM] | Dmax [2] [%]
1 | Cc1cc2c(N3CCCc4nc(-c5ccc(C(=O)NCC#Cc6ccc7occ(C8CCC(=O)NC8=O)c7c6)nc5)ncc43)nc(N3CC4CCC(C3)O4)cc2n(C)c1=O (stereo not drawn) [Example B115, 5-(5-(7-(8-oxa-3-azabicyclo[3.2.1]octan-3-yl)-1,3-dimethyl-2-oxo-1,2-dihydro-1,6-naphthyridin-5-yl)-5,6,7,8-tetrahydropyrido [3,2-d]pyrimidin-2-yl)-N-(3-(3-(2,6-dioxopiperidin-3-yl)benzofuran-5-yl)prop-2-yn-1-yl)picolinamide] | 60 to 79 | 1 to 9.9 | > 1000 | < 20
2 | [2H]C([2H])(C#Cc1ccc2occ(C3CCC(=O)NC3=O)c2c1)NC(=O)c1ccc(-c2ncc3c(n2)CCCN3c2cc(C3CCOCC3)cc3c2cc(C)c(=O)n3C)cn1 (stereo not drawn) [Example B117, 5-(5-(1,3-dimethyl-2-oxo-7-(tetrahydro-2H-pyran-4-yl)-1,2-dihydroquinolin-5-yl)-5,6,7,8-tetrahydropyrido[3,2-d]pyrimidin-2-yl)-N-(3-(3-(2,6-dioxopiperidin-3-yl)benzofuran-5-yl)prop-2-yn-1-yl-1,1-d2)picolinamide] | > 80 | 1 to 9.9 | 100 to 999 | < 20
3 | Cc1cc2c(N3CCCc4nc(-c5ccc(C(=O)NCC#Cc6ccc7occ(C8CCC(=O)NC8=O)c7c6)nc5)ncc43)cc(Cl)cc2n(C)c1=O (stereo not drawn) [Example B119, 5-(5-(7-chloro-1,3-dimethyl-2-oxo-1,2-dihydroquinolin-5-yl)-5,6,7,8-tetrahydro[3,2-d]pyrimidin-2-yl)-N-(3-(3-(2,6-dioxopiperidin-3-yl)benzofuran-5-yl)prop-2-yn-1-yl) picolinamide] | 60 to 79 | 1 to 9.9 | > 1000 | < 20
4 | Cc1cc2c(N3CCOc4cc(-c5ccc(C(=O)NCC#Cc6ccc7occ(C8CCC(=O)NC8=O)c7c6)nc5)ncc43)cc(F)cc2n(C)c1=O (stereo not drawn) [Example B123, N-(3-(3-(2,6-dioxopiperidin-3-yl)benzofuran-5-yl)prop-2-yn-1-yl)-5-(4-(7-fluoro-1,3-dimethyl-2-oxo-1,2-dihydroquinolin-5-yl)-3,4-dihydro-2H-pyrido[4,3-b][1,4]oxazin-7-yl)picolinamide] | > 80 | 1 to 9.9 | > 1000 | < 20
5 | Cc1cc2c(N3CCCc4nc(-c5ccc(C(=O)NCC#Cc6ccc7occ(C8CCC(=O)NC8=O)c7c6)nc5)ccc43)cc(C3CCOCC3)cc2n(C)c1=O (stereo not drawn) [Example B127, 5-(5-(1,3-dimethyl-2-oxo-7-(tetrahydro-2H-pyran-4-yl)-1,2-dihydroquinolin-5-yl)-5,6,7,8-tetrahydro-1,5-naphthyridin-2-yl)-N-(3-(3-(2,6-dioxopiperidin-3-yl)benzofuran-5-yl)prop-2-yn-1-yl)picolinamide] | > 80 | 1 to 9.9 | > 1000 | < 20
6 | Cc1cc2c(-c3cn(C)c(=O)c4cc(-c5ccc(C(=O)NCC#Cc6cc7c(C8CCC(=O)NC8=O)cccc7o6)nc5)ncc34)nc(N3CCOCC3)cc2n(C)c1=O (stereo not drawn) [Example B131, 5-(8-(1,3-dimethyl-7-morpholino-2-oxo-1,2-dihydro-1,6-naphthyridin-5-yl)-6-methyl-5-oxo-5,6-dihydro-2,6-naphthyridin-3-yl)-N-(3-(4-(2,6-dioxopiperidin-3-yl)benzofuran-2-yl)prop-2-yn-1-yl)picolinamide] | > 80 | 1 to 9.9 | > 1000 | < 20
7 | Cc1cc2c(-c3cccc4cc(-c5ccc(C(=O)NCC#Cc6ccc7occ(C8CCC(=O)NC8=O)c7c6)nc5)ncc34)nc(C3CCOCC3)cc2n(C)c1=O (stereo not drawn) [Example B132, 5-(8-(1,3-dimethyl-2-oxo-7-(tetrahydro-2H-pyran-4-yl)-1,2-dihydro-1,6-naphthyridin-5-yl)isoquinolin-3-yl)-N-(3-(3-(2,6-dioxo-piperidin-3-yl)benzofuran-5-yl)prop-2-yn-1-yl)picolinamide] | > 80 | 1 to 9.9 | > 1000 | < 20
8 | Cc1cc2c(N3CCCc4nc(-c5ccc(C(=O)NCC#Cc6cc7c(C8CCC(=O)NC8=O)nccc7n6C)nc5)ncc43)cc(C3CCOCC3)cc2n(C)c1=O (stereo not drawn) [Example B136, 5-(5-(1,3-dimethyl-2-oxo-7-(tetrahydro-2H-pyran-4-yl)-1,2-dihydroquinolin-5-yl)-5,6,7,8-tetrahydropyrido[3,2-d]pyrimidin-2-yl)-N-(3-(4-(2,6-dioxopiperidin-3-yl)-1-methyl-1H-pyrrolo[3,2-c]pyridin-2-yl)prop-2-yn-1-yl) picolinamide] | 60 to 79 | 1 to 9.9 | > 1000 | < 20
9 | Cc1cc2c(N3CCCc4nc(-c5ccc(C(=O)NCC#Cc6ccc7occ(C8CCC(=O)NC8=O)c7c6)nc5)ncc43)nc(N3CC4(COC4)C3)cc2n(C)c1=O (stereo not drawn) [Example B137, 5-(5-(1,3-dimethyl-2-oxo-7-(2-oxa-6-azaspiro[3.3]heptan-6-yl)-1,2-dihydro-1,6-naphthyridin-5-yl)-5,6,7,8-tetrahydropyrido [3,2-d]pyrimidin-2-yl)-N-(3-(3-(2,6-dioxo-piperidin-3-yl)benzofuran-5-yl)prop-2-yn-1-yl)picolinamide] | 60 to 79 | 1 to 9.9 | > 1000 | < 20

The remaining lines, values ahead:

Row | Dmax [1] [%] | DC50 [1] [nM] | DC50 [2] [nM] | Dmax [2] [%] | SMILES
10 | > 80 | 1 to 9.9 | 100 to 999 | < 20 | Cc1cc(-c2ncc3c(n2)CCCN3c2cc(C3CCOCC3)nc3c2cc(C)c(=O)n3C)cnc1C(=O)NCC#Cc1cc2c(C3CCC(=O)NC3=O)cccc2o1 (stereo not drawn) [Example B103, 5-(5-(6,8-dimethyl-7-oxo-2-(tetrahydro-2H-pyran-4-yl)-7,8-dihydro-1,8-naphthyridin-4-yl)-5,6,7,8-tetrahydropyrido[3,2-d]pyrimidin-2-yl)-N-(3-(4-(2,6-dioxopiperidin-3-yl)benzofuran-2-yl)prop-2-yn-1-yl)-3-methylpicolinamide]
11 | > 80 | < 1 | 100 to 999 | < 20 | Cc1cc2c(N3CCCc4nc(-c5ccc(C(=O)NCC#Cc6cc7c(C8CCC(=O)NC8=O)nccc7o6)nc5)ncc43)cccc2n(C)c1=O (stereo not drawn) [Example B106, 5-(5-(1,3-dimethyl-2-oxo-1,2-dihydroquinolin-5-yl)-5,6,7,8-tetrahydropyrido[3,2-d]pyrimidin-2-yl)-N-(3-(4-(2,6-dioxopiperidin-3-yl)furo [3,2-c]pyridin-2-yl)prop-2-yn-1-yl) picolinamide]
12 | 60 to 79 | 1 to 9.9 | > 1000 | < 20 | Cc1cc2c(N3CCCc4nc(-c5ccc(C(=O)NCC#Cc6ccc7occ(C89CC(C8)C(=O)NC9=O)c7c6)nc5)ncc43)cc(C3CCOCC3)cc2n(C)c1=O [Example B107, 5-(5-(1,3-dimethyl-2-oxo-7-(tetrahydro-2H-pyran-4-yl)-1,2-dihydroquinolin-5-yl)-5,6,7,8-tetrahydropyrido[3,2-d]pyrimidin-2-yl)-N-(3-(3-(2,4-dioxo-3-azabicyclo[3.1.1]heptan-1-yl)benzofuran-5-yl)prop-2-yn-1-yl) picolinamide]
13 | > 80 | < 1 | 100 to 999 | < 20 | Cc1cc2c(N3CCCc4nc(-c5ccc(C(=O)NCC#Cc6ccc7onc(C8CCC(=O)NC8=O)c7c6)nc5)ncc43)cc(C3CCOCC3)cc2n(C)c1=O (stereo not drawn) [Example B108, 5-(5-(1,3-dimethyl-2-oxo-7-(tetrahydro-2H-pyran-4-yl)-1,2-dihydroquinolin-5-yl)-5,6,7,8-tetrahydropyrido[3,2-d]pyrimidin-2-yl)-N-(3-(3-(2,6-dioxopiperidin-3-yl)benzo[d]isoxazol-5-yl)prop-2-yn-1-yl)picolinamide]
14 | > 80 | 1 to 9.9 | > 1000 | < 20 | Cc1cc2c(N3CCCc4nc(-c5ccc(C(=O)NCC#Cc6ccc7occ(C8CCC(=O)NC8=O)c7c6)nc5)ncc43)cccc2n(C)c1=O (stereo not drawn) [Example B110, 5-(5-(1,3-dimethyl-2-oxo-1,2-dihydroquinolin-5-yl)-5,6,7,8-tetrahydropyrido[3,2-d]pyrimidin-2-yl)-N-(3-(3-(2,6-dioxopiperidin-3-yl)benzofuran-5-yl)prop-2-yn-1-yl)picolinamide]
15 |  | 1 to 9.9 | 10 to 99 |  | CN1Cc2c(-c3cccc4cc(-c5ccc(C(=O)NCC#Cc6ccc7cnn(C8CCC(=O)NC8=O)c7c6)nc5)ncc34)cc(C(C)(F)F)cc2N(C)C1=O (stereo not drawn) [Example B111, 5-(8-(7-(1,1-difluoroethyl)-1,3-dimethyl-2-oxo-1,2,3,4-tetrahydroquinazolin-5-yl)isoquinolin-3-yl)-N-(3-(1-(2,6-dioxopiperidin-3-yl)-1H-indazol-6-yl)prop-2-yn-1-yl)picolinamide]
16 | > 80 | < 1 | 100 to 999 | < 20 | COc1cc(N2CCOc3cc(-c4ccc(C(=O)NCC#Cc5ccc6occ(C7CCC(=O)NC7=O)c6c5)nc4)ncc32)c2cc(C)c(=O)n(C)c2c1 (stereo not drawn) [Example B112, N-(3-(3-(2,6-dioxopiperidin-3-yl)benzofuran-5-yl)prop-2-yn-1-yl)-5-(4-(7-methoxy-1,3-dimethyl-2-oxo-1,2-dihydroquinolin-5-yl)-3,4-dihydro-2H-pyrido[4,3-b][1,4]oxazin-7-yl) picolinamide]
17 | > 80 | < 1 | 1 to 9.9 | 40 to 59 | Cc1cc2c(N3CCN(C)c4nc(-c5ccc(C(=O)NCC#Cc6ccc7occ(C8CCC(=O)NC8=O)c7c6)nc5)ncc43)cc(C3CCOCC3)cc2n(C)c1=O (stereo not drawn) [Example B124, 5-(5-(1,3-dimethyl-2-oxo-7-(tetrahydro-2H-pyran-4-yl)-1,2-dihydroquinolin-5-yl)-8-methyl-5,6,7,8-tetrahydropteridin-2-yl)-N-(3-(3-(2,6-dioxopiperidin-3-yl)benzofuran-5-yl)prop-2-yn-1-yl)picolinamide]

Reference: patent publication US20250114345A1, “COMPOUNDS AND COMPOSITIONS AS CBP/P300 DEGRADERS AND USES THEREOF” (Oncopia Therapeutics, Inc. d/b/a/ SK Life Science Labs, priority 2023, published 2025)
